Experimental data reported in US9975944B2, “Synthetic peptides for the treatment of autoimmune diseases” (TEL HASHOMER MEDICAL RESEARCH INFRASTRUCTURE AND SERVICES …, priority 2013, dated 2018).
Square brackets hold non-standard residues; d marks the D form. Ends that are not written are not given here. Cit = NC(=O)NCCC[C@H](N)C(=O)O

What was measured:
[1] = system: pathogenic Th17 cells; assay: Pathogenic Th17 cell proportion in PBMC of RA patients, FACS; type: cell-based, human; conditions: 48 hours
Protocol: To assess ability of the citrullinated peptides to affect the pathogenic Th17 cells population proportion, peripheral blood mononuclear cells of rheumatoid arthritis patients were cultured in the presence of citrullinated peptides, non-citrullinated peptides and Infliximab for 48 hours. In the last 4 hours phorbol12-myristate 13-acetate (PMA), ionomycin and brefeldin A were added to the culture. Thereafter cells were stained with antibodies against CD3 and IL-17. As shown in FIGS. 7A-7H, significant down-regulation in the mean percentage of pathogenic Th17 cells was detected following incubation with the citrullinated peptides: decrease of 21% (Fil-Cit; E), 5% (β-Fib-Cit; F), and 26% (Cit-ME; G) as compared with the non-citrullinated matched peptides (FIG. 7A-7C, respectively). Mean percentage of pathogenic Th17 cells in the presence of Infliximab was decreased by 48% (FIG. 7H) as compared to medium (FIG. 7D).

[2] = system: IL-17; assay: IL-17 gene expression in peripheral blood mononuclear cells of RA patients, real-time PCR; type: cell-based, human; conditions: PBMC of RA patients, 24 h incubation, peptide 0.25 or 1.25 μg/ml, compared with control non-citrullinated peptides
Excerpt: (§1) Citrullinated peptide derived from filaggrin, set forth in SEQ ID NO: 3, (HQCHQESTCitGRSRGRCGRSGS) designated Fil-Cit and citrullinated peptide derived from β-fibrinogen sequence (designated β-Fib-Cit) set forth in SEQ ID NO: 2 (CitPAPPPISGGGYCitACit) were examined for their ability to immunomodulate cytokine expression in peripheral blood mononuclear cells from rheumatoid arthritis patients. Matched non-citrullinated forms of those peptides served as control, and were designated Fil-NC and β-Fib-NC, respectively. All rheumatoid arthritis patients who participated in the study signed an informed consent and the research was approved by the Sheba Helsinki committee (approval No 9247-12-SMC). All procedures were conducted according to good clinical practice (GCP) regulations.
(§2) Peripheral blood mononuclear cells were isolated from blood samples using Ficoll-Paque density gradient centrifugation. The extracted cells were cultivated in the presence of Fil-Cit (0.25 μg/ml or 1.25 μg/ml), β-Fib-Cit (0.25 μg/ml or 1.25 μg/ml) and the control matched peptides. Total RNA was extracted 24 h after incubation with the peptides.

[3] = system: IFN-γ; assay: IFN-γ gene expression in peripheral blood mononuclear cells of RA patients, real-time PCR; type: cell-based, human; conditions: PBMC of RA patients, 24 h incubation, peptide 0.25 or 1.25 μg/ml, compared with control non-citrullinated peptides
Excerpt: as §1, §2

[4] = system: CD4+CD25+Foxp3+ T cells; assay: Regulatory T cell proportion in PBMC of RA patients, FACS; type: cell-based, human; conditions: 48 hours
Protocol: Given the observed immunomodulation of cytokines following incubation of peripheral blood mononuclear cells obtained from rheumatoid arthritis patients with citrullinated peptides, the citrullinated peptides were tested for their ability to exert an effect on the T regulatory population proportion. Peripheral blood mononuclear cells of rheumatoid arthritis patients were cultured in the presence of 1.25 μg/ml of the peptides (Fil-Cit, β-Fib-Cit, and Cit-ME; FIGS. 6A, 6B and 6E, respectively, and Fil-NC, β-Fib-NC and Non-Cit-ME; FIGS. 6C, 6D and 6G, respectively), and Infliximab (FIG. 6F) for 48 hours. Cells cultured with medium devoid of the peptides and Infliximab served as control (FIG. 6H). Thereafter, cells were stained for the expression of CD4, CD25, and FoxP3 and analyzed by FACS. […] Mean percentage of CD4^+CD25^+Foxp3^+ T cells in the presence of Infliximab was increased by 14% as compared to medium (FIG. 6F and FIG. 6H, respectively). Thus, citrullinated peptides are able to induce the expansion of the T regulatory cell population.

[5] = system: TNF-α; assay: TNF-α gene expression in peripheral blood mononuclear cells of RA patients, real-time PCR; type: cell-based, human; conditions: PBMC of RA patients, 24 h incubation, peptide 0.25 or 1.25 μg/ml, compared with control non-citrullinated peptides
Excerpt: as §1, §2

[6] = system: TGF-β; assay: TGF-β gene expression in peripheral blood mononuclear cells of RA patients, real-time PCR; type: cell-based, human; conditions: for mean expression levels of TGF-β: PBMC from 6 RA patients, compared with matched non-citrullinated peptide; for TGF-β gene expression level: PBMC of RA patients, 24 h incubation, peptide 0.25 or 1.25 μg/ml, compared with control non-citrullinated peptides
Excerpt: as §1, §2
To further investigate the ex vivo effects of the citrullinated peptides on TGF-β expression, peripheral blood mononuclear cells obtained from 6 rheumatoid arthritis patients were cultured in the presence of citrullinated or control peptides. […] Up-regulation was likewise indicated in peripheral blood mononuclear cells incubated with Fil-Cit.

[7] = system: TNF-α; assay: TNF-α gene expression in mononuclear cells derived from synovial fluid of RA patients, real-time PCR; type: cell-based, human; conditions: compared to medium alone (control)
Protocol: To assess the effect of the Cit-ME peptide (SEQ ID NO: 1) on inflammatory related genes expression, peripheral blood mononuclear cells derived from synovial fluid rheumatoid arthritis patients were incubated with the Cit-ME multi-epitope citrullinated peptide for 24 h. The effect of the peptide on gene expression was compared also to the effect of infliximab, a TNF-α blocker, which is an antirheumatic drug that acts as an anti-inflammatory compound. […] Results were determined by real-time PCR.

[8] = system: T cells; assay: T cells apoptosis in PBMC of RA patients, annexin V/PI FACS; type: cell-based, human; conditions: 24 hours, gated on PI negative cells
Protocol: To assess the ability of the citrullinated peptides to affect T cells apoptosis, peripheral blood mononuclear cells of rheumatoid arthritis patients were cultured in the presence of citrullinated, non-citrullinated peptides and Infliximab for 24 hours. Cells were double-stained for annexin V-fluorescein isothiocyanate (FITC) and PI-PE (apoptosis/necrosis markers) and analyzed by FACS. The results in FIG. 8 are presented after gating for PI negative cells (live cells). The β-Fib-Cit and Cit-ME (FIGS. 8A and 8B, respectively) induced T cells apoptosis (by 20% and 18%, respectively) as compared with the non-citrullinated peptides Non-Cit-β-Fib (FIG. 8D) and Non-Cit-ME (FIG. 8E). Infliximab induced apoptosis by 28% (FIG. 8C) as compared with the medium control (FIG. 8F).

[9] = system: T cells derived from the spleen; assay: Apoptosis of T cells from the spleen of AIA rats, Annexin V/PI staining; type: in vivo, rat; conditions: gated for PI and CD4+, two independent experiments, control 13±1%
Protocol: To assess apoptosis of T cells derived from the spleen of treated rats, the Annexin V/PI staining method was preformed. FIGS. 14A-14C are representative histograms of cells treated with Cit-Me (FIG. 14A), non-Cit-Me (FIG. 14B) or untreated (FIG. 14C). The histograms present apoptosis measured by Annexin V^+. First, cells were gated for PI and CD4^+ and next analyzed for percentage of Annexin-V positive cells. […] A significant increase (p<0.01) in the mean apoptotic rate was determined in cells from the spleen of Cit-ME treated rats (19.5±1.8%) in comparison with Non-Cit-ME or control (13.8±1.3% and 13±1%, respectively).

[10] = system: AIA rats; assay: Histological signs of arthritis in ankle joints of AIA rats; type: in vivo, rat; conditions: day 28 post disease induction, H&E, untreated 1.75±0.41
Protocol: To evaluate the histological signs of arthritis, rats were sacrificed and ankle joints were collected on day 28 post disease induction. The joints were fixed immediately for 24 hours in 4% paraformaldehyde, then decalcified in rapid bone decalcifier (RDO; Apex Engineering, Plainfield, Ill., USA) for 6 hours at room temperature, and further fixed in 4% paraformaldehyde before embedding in paraffin. Sections (5 μm thick) were rehydrated in a graded ethanol series and stained with haematoxylin & eosin (H&E). FIGS. 11A to 11C show representative H&E stained joint tissue sections (magnification ×100). Arrowheads denote the infiltrated zones, scale bar=200 μm. The specimens were scored for severity of inflammation in the synovium, pannus formation, cartilage, and bone erosion. A close correlation between the clinical signs and the histopathological findings was found.

[11] = system: CD4+CD25+FoxP3+ regulatory T cells; assay: Regulatory T cells in splenocytes of AIA rats, FACS; type: in vivo, rat
Excerpt: Splenocytes from rats at day 28 post disease induction were stained with anti-CD4-FITC, anti-CD25-APC, and anti-Foxp3-PE (eBioscience) mAbs and analyzed by FACS. In representative outputs as shown in FIG. 12A-C, Regulatory T cells subpopulation was higher in Cit-ME treated rats (9%), compared to 7% and 6.2% in Non-Cit-ME peptide and untreated rats, respectively. Statistical analysis of the results is shown in FIG. 12D (Cit-ME n=9, Non-Cit-ME n=11, untreated rats n=7).

[12] = system: AIA rats; assay: Adjuvant-Induced Arthritis (AIA) in rats, paw swelling and clinical signs; type: in vivo, rat; conditions: AIA rats, 8 subcutaneous injections of 300 μg per rat on alternate days from day 7
[13] = PMA, ionomycin and brefeldin A in last 4 hours, compared with non-citrullinated matched peptide
[14] = 1.25 μg/ml peptide, compared with non-citrullinated matched peptide

| Substance | decrease in mean percentage of pathogenic Th17 cells [1, 13] | IL-17 gene expression level [2] | IFN-γ gene expression level [3] | increase in mean percentage of CD4+CD25+Foxp3+ T cells [4, 14] | TNF-α gene expression level [5] | mean expression levels of TGF-β [6] | TGF-β gene expression level [6] | decrease in mean percentage of pathogenic Th17 cells ([1]; compared to medium) | expression level of TNF-α [7] | induction of apoptosis ([8]; compared with the medium control) | increase in mean percentage of CD4+CD25+Foxp3+ T cells ([4]; compared to medium) | induction of T cells apoptosis ([8]; compared with matched non-citrullinated peptide) | mean apoptotic rate (Annexin-V positive cells) [9] | histological inflammatory score [10] | percentage of CD4+CD25+FoxP3+ regulatory T cells subset, statistical analysis ([11]; spleens of AIA rats, day 28, untreated 7.17±0.31) | Regulatory T cells subpopulation, representative outputs ([11]; splenocytes of AIA rats, day 28 post disease induction, untreated 6.2%) | clinical score post immunization [12] |
| --- | --- | --- | --- | --- | --- | --- | --- | --- | --- | --- | --- | --- | --- | --- | --- | --- | --- |
| HQCHQESTCitGRSRGRCGRSGS (HQCHQEST[Cit]GRSRGRCGRSGS; cysteine pairing not given here) [Fil-Cit, citrullinated peptide derived from filaggrin] | 21% | down-regulated | down-regulated | 56% | down-regulated | Up-regulation | significantly up-regulated |  |  |  |  |  |  |  |  |  |  |
| Infliximab: a TNF-α blocker, an antirheumatic drug that acts as an anti-inflammatory compound [reference compound] |  |  |  |  |  |  |  | 48% | downregulated | 28% | 14% |  |  |  |  |  |  |
| CitPAPPPISGGGYCitACit ([Cit]PAPPPISGGGY[Cit]A[Cit]) [β-Fib-Cit] | 5% | down-regulated | down-regulated | 50% | down-regulated | significantly up-regulated | significantly up-regulated |  |  |  |  | 20% |  |  |  |  |  |
| VRLRSSVESTRGRSRPAPPPARGLT [Non-Cit-ME] |  |  |  |  |  |  |  |  |  |  |  |  | 13.8±1.3% | 1.28±0.6 | 6.97±0.22% | 7% | Reduction in clinical score |
